Converted amounts (≈) assume the structure as drawn. Like-named read-outs stand apart in the source and are kept apart here.
Experiments:
[1] = system: Pseudomonas aeruginosa SR 24; experiment: minimal inhibitory concentration (agar plate two-fold dilution), Pseudomonas aeruginosa SR 24; type: cell-based
Procedure: (§1) 3) The said sodium salt (1 g) prepared by neutralizing under sterile condition is dissolved in distilled water for injection (4 g) and administered to a patient suffering from sensitive pseudomonal bacteria twice a day intravenously to treat this infection. The free acid or sodium salt is dissolved in 0.01N-aqueous sodium hydrogen carbonate and tested for minimal inhibitory concentration against gram-negative bacteria according to a method of Japan Society of Chemotherapy on an agar plate by two-fold dilution method.
The minimal inhibitory concentration of Compound (I) where R^1 is 2-(2-amino-4-thiazolyl)-2-(1-carboxy-1-methylethoxyimino)acetamido, R^2 is hydrogen, R^3 is hydrogen, R^4 is 3,4-dihydroxyphenyl, R^5 is methylene, R^6 combined with Y- is negative charge, and X is sulfur against Pseudomonas aeruginosa SR 24 is 0.2 μg/ml. By altering the groups with the following ones to vary the activities as listed below.

[2] = system: Pseudomonas aeruginosa SR 24; experiment: 50% effective dose preventing lethal Pseudomonas aeruginosa SR 24 mouse infection; type: in vivo
Description: (§2) The compound is highly safe in the case of intravenous injection to various animals.

[3] = system: Pseudomonas aeruginosa SR 5018; experiment: minimal inhibitory concentration (agar plate two-fold dilution), ofloxacin resistant Pseudomonas aeruginosa SR 5018; type: cell-based; settings: SR5018
Procedure: as §1

[4] = system: Escherichia coli SR 5082; experiment: minimal inhibitory concentration (agar plate two-fold dilution), Escherichia coli SR 5082; type: cell-based; settings: SR5082
Procedure: as §1

[5] = system: mice; experiment: safety, intravenous injection in mice; type: in vivo; settings: up to 1 g/kg
Description: as §2

[6] = system: various animals; experiment: safety, intravenous injection to various animals; type: in vivo
Description: as §2

[7] = system: rabbits; type: in vivo; settings: up to 1 g/kg
Description: as §2

[8] = SR24, Pseudomonas aeruginosa SR 24, Experiment 1, read-out: minimal inhibitory concentration
[9] = ofloxacin resistant Pseudomonas aeruginosa SR 5018, read-out: MIC

O=C(Cc1ccccc1)N[C@@H]1C(=O)N2C(C(=O)[O-])=C(CSc3cc[n+](CC(=O)c4ccc(O)c(O)c4)cc3)CS[C@H]12 [No. 1]
MIC [1, 8]: > 100 µg/mL

CC(C)(ON=C(C(=O)N[C@@H]1C(=O)N2C(C(=O)[O-])=C(CSc3cc[n+](CC(=O)c4ccc(O)c(O)c4)cc3)CS[C@H]12)c1csc(N)n1)C(=O)O [No. 8]
MIC [1, 8]: 0.2 µg/mL (≈ 0.274 µM)
ED50 ([2]; Pseudomonas aeruginosa, SR24, read-out: ED50 (50% effective dose preventing lethal infection), Pseudomonas aeruginosa SR 24, mouse infection): 1.35 to 6.27 mg/kg

CC(C)(ON=C(C(=O)N[C@@H]1C(=O)N2C(C(=O)[O-])=C(CSc3cc[n+](CC(=O)c4cc(O)c(O)c(Cl)c4)cc3)CS[C@H]12)c1csc(N)n1)C(=O)O [No. 18]
MIC [1, 8]: 0.025 µg/mL (≈ 0.0328 µM)

CC(C)(ON=C(C(=O)N[C@@H]1C(=O)N2C(C(=O)[O-])=C(C[n+]3ccc4cc(O)c(O)cc4c3)CS[C@H]12)c1csc(N)n1)C(=O)O [BO-1341, 3-(6,7-dihydroxyisoquinolinio)methyl-7β-(2-(2-aminothiazol-4-yl)-2-(1-carboxy-1-methylethoxyimino)acetamido)-3-cephem-4-carboxylate, reference compound]
MIC [3, 9]: 0.4 µg/mL (≈ 0.636 µM)
MIC [4]: 1.6 µg/mL (≈ 2.55 µM)

CC(C(=O)c1ccc(O)c(O)c1)[n+]1ccc(SCC2=C(C(=O)[O-])N3C(=O)[C@@H](NC(=O)C(=NOC(C)(C)C(=O)O)c4csc(N)n4)[C@H]3SC2)cc1 (some centres unmarked) [No. 23]
MIC [1, 8]: 0.025 µg/mL (≈ 0.0337 µM)

CC(C)(ON=C(C(=O)N[C@@H]1C(=O)N2C(C(=O)[O-])=C(CSc3cc[n+](CC(=O)c4cccc(O)c4O)cc3)CS[C@H]12)c1csc(N)n1)C(=O)O [No. 7]
MIC [1, 8]: 0.39 µg/mL (≈ 0.535 µM)

CC(C)(C=C(C(=O)N[C@@H]1C(=O)N2C(C(=O)[O-])=C(CSc3cc[n+](CC(=O)c4ccc(O)c(O)c4)cc3)CS[C@H]12)c1csc(N)n1)C(=O)O [No. 27]
MIC [1, 8]: 0.1 µg/mL (≈ 0.14 µM)

CON=C(C(=O)N[C@@H]1C(=O)N2C(C(=O)[O-])=C(C[N+]34CCC(C(N)=O)(CC3)CC4)CS[C@H]12)c1nsc(N)n1 [E-1040, 3-(4-carbamoylquinuclidinio)methyl-7β-[2-(5-amino-1,2,4-thiadiazol-3-yl)-2-methoxyimino]-acetamido-3-cephem-4-carboxylate, reference compound]
MIC ([3]; Pseudomonas aeruginosa): 6.3 µg/mL (≈ 11.4 µM)

CC(C)(ON=C(C(=O)N[C@@H]1C(=O)N2C(C(=O)[O-])=C(CSc3cc[n+](CC(=O)c4ccc(O)c(O)c4)cc3)C[S+]([O-])[C@H]12)c1csc(N)n1)C(=O)O (some centres unmarked) [No. 9]
times activity versus E-1040 (MIC) ([3]; Pseudomonas aeruginosa): 63 times
times activity versus ceftazidime (MIC) ([3]; Pseudomonas aeruginosa): 250 times
MIC [3, 9]: 0.1 µg/mL (≈ 0.134 µM)
MIC [4]: 0.2 µg/mL (≈ 0.269 µM)
death [5]: no death
toxic effect as Antabuse-like activity [5]: no death nor toxic effect as Antabuse-like activity
safety [6]: highly safe
MIC ([1]; Pseudomonas aeruginosa SR 24, listed as representative compound (I)): 0.1 µg/mL (≈ 0.134 µM)
MIC [1, 8]: 0.1 µg/mL (≈ 0.134 µM)
MIC ([1]; SR24, Pseudomonas aeruginosa SR 24, read-out: MIC): 0.1 µg/mL (≈ 0.134 µM)
renal toxicity [7]: did not show renal toxicity
ED50 (50% effective dose preventing lethal infection) ([2]; Pseudomonas aeruginosa SR 24, mouse infection, listed as Compound (I) where X is sulfinyl): 1.35 mg/kg

CC(C)(O/N=C(\C(=O)N[C@@H]1C(=O)N2C(C(=O)[O-])=C(C[n+]3ccccc3)CS[C@H]12)c1csc(N)n1)C(=O)O [ceftazidime, reference compound]
MIC ([3]; Pseudomonas aeruginosa): 25 µg/mL (≈ 45.7 µM)

CC(=O)Oc1ccc(C(=O)C[n+]2ccc(SCC3=C(C(=O)[O-])N4C(=O)[C@@H](NC(=O)C(=NOC(C)(C)C(=O)O)c5csc(N)n5)[C@H]4SC3)cc2)cc1OC(C)=O [No. 11]
MIC [1, 8]: 0.025 µg/mL (≈ 0.0308 µM)

CC(C)(ON=C(C(=O)N[C@@H]1C(=O)N2C(C(=O)[O-])=C(CSc3cc[n+](CC(=O)c4cc(O)c(O)cc4Cl)cc3)CS[C@H]12)c1csc(N)n1)C(=O)O [No. 22 (3,4-OH-6-Cl)]
MIC [1, 8]: 0.025 µg/mL (≈ 0.0328 µM)

Cc1cc(O)c(O)cc1C(=O)C[n+]1ccc(SCC2=C(C(=O)[O-])N3C(=O)[C@@H](NC(=O)C(=NOC(C)(C)C(=O)O)c4csc(N)n4)[C@H]3SC2)cc1 [No. 14]
MIC [1, 8]: 0.05 µg/mL (≈ 0.0673 µM)

CC(C)(ON=C(C(=O)N[C@@H]1C(=O)N2C(C(=O)[O-])=C(CSc3cc[n+](CC(=O)c4ccc(O)c(O)c4)cc3)CO[C@H]12)c1csc(N)n1)C(=O)O [No. 13]
MIC [1, 8]: 0.2 µg/mL (≈ 0.281 µM)

CC(C)(ON=C(C(=O)N[C@@H]1C(=O)N2C(C(=O)[O-])=C(CSc3cc[n+](CC(=O)c4ccc(O)c(O)c4)c4c3CCC4)CS[C@H]12)c1csc(N)n1)C(=O)O [No. 25]
MIC [1, 8]: 0.05 µg/mL (≈ 0.065 µM)

CON=C(C(=O)N[C@@H]1C(=O)N2C(C(=O)[O-])=C(CSc3cc[n+](CC(=O)c4ccc(O)c(O)c4)cc3)CS[C@H]12)c1csc(N)n1 [No. 5]
MIC [1, 8]: 0.4 µg/mL (≈ 0.609 µM)

From patent US5134138A, “Phenacylpyridiniothiocephalosporins” (Shionogi & Co., Ltd., priority 1989, dated 1992)
